Results reported in patent US6794560B2, “Nucleic acid encoding GAI gene of Arabidopsis thaliana” (Pioneer Hi-Bred International, Inc., priority 1996, dated 2004).

Assays:
gai-t6 mutant = test: growth on medium containing paclobutrazol; assay type: in vivo, Arabidopsis thaliana; settings: grown on medium containing paclobutrazol
Excerpt: The slender mutants of pea and barley are resistant to the dwarfing effects of paclobutrazol^38-42, as is the Arabidopsis constitutive GA-response mutant spy^43,44. Thus, in these mutants stem elongation is at least partially uncoupled from the GA-mediated control characteristic of normal plants. […] Put another way, a GAI null mutant appears to require less endogenous GA to achieve a certain degree of growth than does a normal plant. GA-dependency is not completely abolished by gai-t6 possibly because the products of genes related in sequence to GAI (see above) can substantially, but not completely, compensate for loss of GAI function.

kaurene oxidase reaction = target: T1, kaurene oxidase reaction (Arabidopsis thaliana, UniProt Q93ZB2); settings: cited from earlier work
T1 sequence (Q93ZB2 1-509): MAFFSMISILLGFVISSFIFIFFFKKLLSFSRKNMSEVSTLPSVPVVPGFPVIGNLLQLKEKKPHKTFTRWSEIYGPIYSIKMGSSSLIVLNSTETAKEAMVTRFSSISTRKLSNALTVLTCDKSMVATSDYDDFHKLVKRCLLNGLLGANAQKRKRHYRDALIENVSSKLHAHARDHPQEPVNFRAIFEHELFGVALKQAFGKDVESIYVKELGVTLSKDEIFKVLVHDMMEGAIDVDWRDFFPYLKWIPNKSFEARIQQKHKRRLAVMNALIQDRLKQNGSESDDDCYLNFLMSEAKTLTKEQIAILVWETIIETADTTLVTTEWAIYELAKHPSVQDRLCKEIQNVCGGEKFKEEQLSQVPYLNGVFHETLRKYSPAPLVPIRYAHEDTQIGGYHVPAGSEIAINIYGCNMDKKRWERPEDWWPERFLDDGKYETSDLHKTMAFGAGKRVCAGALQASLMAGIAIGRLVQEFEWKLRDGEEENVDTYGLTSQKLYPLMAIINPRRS

plants = settings: reduces endogenous GA levels; cited from earlier work
[1] = system: stimulation of cell elongation, leaf senescence or elicitation of the cereal aleurone α-amylase response; settings: structure-activity statement; cited from earlier work
gai mutants = settings: cited from earlier work

## CC(C)(C)[C@@H](O)[C@@H](Cc1ccc(Cl)cc1)n1cncn1 (racemic) [Paclobutrazol]
gai-t6 mutant
  floral bolt stem length of gai-t6 mutants vs GAI control plants: longer floral bolt stems than GAI control plants
Kaurene oxidase reaction
  inhibition of GA biosynthesis: specifically inhibits GA biosynthesis
plants
  phenotype of plants exposed: conferring a dwarf phenotype

## C=C1C[C@]23C[C@@]1(O)CC[C@H]2[C@@]12CC[C@H](O)[C@@](C)(C(=O)O1)[C@H]2[C@@H]3C(=O)O [GA1]
[1]
  biological activity of gibberellin: high biological activity
Gai mutants
  response of gai mutants to GA treatment: do not respond

## C=C1C[C@]23C[C@@]1(O)CC[C@H]2[C@@]12C=C[C@H](O)[C@@](C)(C(=O)O1)[C@H]2[C@@H]3C(=O)O [GA3]
Gai mutants
  response of gai mutants to GA treatment: do not respond

## C=C1C[C@]23C[C@H]1CC[C@H]2[C@@]12CC[C@H](O)[C@@](C)(C(=O)O1)[C@H]2[C@@H]3C(=O)O [GA4]
[1]
  biological activity of gibberellin: high biological activity
Gai mutants
  response of gai mutants to GA treatment: do not respond

## C=C1C[C@]23C[C@H]1CC[C@H]2[C@@]12C=C[C@H](O)[C@@](C)(C(=O)O1)[C@H]2[C@@H]3C(=O)O [GA7]
[1]
  biological activity of gibberellin: high biological activity

## C=C1C[C@]23C[C@@]1(O)CC[C@H]2[C@@]12C[C@H](O)[C@H](O)[C@@](C)(C(=O)O1)[C@H]2[C@@H]3C(=O)O [GA8]
[1]
  biological activity of gibberellin: inactivity

## C=C1C[C@]23C[C@@]1(O)CC[C@H]2[C@@]12C[C@H](O)C[C@@](C)(C(=O)O1)[C@H]2[C@@H]3C(=O)O [GA29]
[1]
  biological activity of gibberellin: inactivity

## C=C1C[C@]23C[C@H]1CC[C@H]2[C@@]12C[C@H](O)[C@H](O)[C@@](C)(C(=O)O1)[C@H]2[C@@H]3C(=O)O [GA34]
[1]
  biological activity of gibberellin: inactivity

## C=C1C[C@]23C[C@H]1CC[C@H]2[C@@]12C[C@H](O)C[C@@](C)(C(=O)O1)[C@H]2[C@@H]3C(=O)O [GA51]
[1]
  biological activity of gibberellin: inactivity
